Columns and labels:
[1] = target: T1, Endothelin receptor type B (Rattus norvegicus, UniProt P21451); experiment: In vitro inhibition of endothelin binding to Endothelin B receptor in rat cerebellum was measured using 125-I labelled ET-1 competition assay; No measurable affinity; type: tissue-based
T1 sequence (P21451 whole entry): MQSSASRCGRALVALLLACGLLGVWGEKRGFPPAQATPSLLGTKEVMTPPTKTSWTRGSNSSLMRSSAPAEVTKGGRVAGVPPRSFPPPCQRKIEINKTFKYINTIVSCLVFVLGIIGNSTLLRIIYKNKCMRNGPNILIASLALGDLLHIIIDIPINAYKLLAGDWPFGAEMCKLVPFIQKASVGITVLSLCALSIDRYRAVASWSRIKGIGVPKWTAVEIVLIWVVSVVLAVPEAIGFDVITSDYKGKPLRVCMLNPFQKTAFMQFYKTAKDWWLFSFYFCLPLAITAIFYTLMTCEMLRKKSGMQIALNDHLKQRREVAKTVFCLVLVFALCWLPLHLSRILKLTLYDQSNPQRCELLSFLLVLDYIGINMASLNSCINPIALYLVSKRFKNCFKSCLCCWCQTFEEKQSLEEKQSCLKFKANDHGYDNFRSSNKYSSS

Endothelin-1 receptor [2] = target: T2, Endothelin-1 receptor (Rattus norvegicus, UniProt P26684); experiment: In vitro inhibition of endothelin binding to Endothelin A receptor in rat heart ventricles was measured using 125-I labelled ET-1 competition assay; No measurable affinity
T2 sequence (P26684 whole entry): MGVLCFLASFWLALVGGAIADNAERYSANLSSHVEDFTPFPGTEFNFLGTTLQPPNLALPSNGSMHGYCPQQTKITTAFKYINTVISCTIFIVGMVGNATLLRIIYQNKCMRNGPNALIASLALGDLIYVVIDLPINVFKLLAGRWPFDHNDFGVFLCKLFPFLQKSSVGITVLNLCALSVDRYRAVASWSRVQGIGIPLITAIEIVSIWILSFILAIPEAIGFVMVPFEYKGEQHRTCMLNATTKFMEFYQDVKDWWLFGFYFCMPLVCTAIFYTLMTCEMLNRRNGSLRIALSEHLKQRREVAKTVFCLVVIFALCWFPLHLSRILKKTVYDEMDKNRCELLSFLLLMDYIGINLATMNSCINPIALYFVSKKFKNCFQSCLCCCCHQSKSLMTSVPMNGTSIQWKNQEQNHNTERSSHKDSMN

Endothelin-1 receptor [3] = target: T2, Endothelin-1 receptor; experiment: In vitro inhibition of endothelin binding to endothelin A receptor in rat heart ventricles was measured using a 125-I labelled ET-1 competition assay
[4] = target: T1, Endothelin receptor type B; experiment: In vitro inhibition of [125-I] labelled ET-1 endothelin binding to Endothelin B receptor in rat cerebellum; type: tissue-based
[5] = pKa was determined in ethanol:water (1:1) system; type: physicochemical

COc1cccc(Cn2[nH]c(C(F)(F)F)c(Cc3cc(OC)c(OC)c(OC)c3)c2=O)c1
IC50 [1]: Not Active
IC50 (Endothelin-1 receptor [2]): Not Active

COc1cccc(Cn2[nH]c(C(F)(F)F)c(Cc3cc(Cl)c4c(c3)OCO4)c2=O)c1
IC50 (Endothelin-1 receptor [3]): 1.3 µM
IC50 [4]: 5.4 µM

COc1cccc(Cn2nc(C(F)(F)F)c(Cc3ccc4c(c3)OCO4)c2OCCCC(=O)O)c1
IC50 [1]: Not Active
IC50 (Endothelin-1 receptor [3]): 64 µM

O=c1c(Cc2ccc3c(c2)OCO3)c(C(F)(F)F)[nH]n1Cc1cccc(O)c1
IC50 (Endothelin-1 receptor [3]): 1.7 µM
IC50 [4]: 36 µM

COc1ccc(Cn2[nH]c(C(F)(F)F)c(Cc3ccc4c(c3)OCO4)c2=O)c(OCC(=O)O)c1
IC50 (Endothelin-1 receptor [3]): 3.8 µM
IC50 [4]: 12 µM

O=c1c(Cc2ccc3c(c2)OCO3)c(C(F)(F)F)[nH]n1Cc1cccc(Cl)c1
IC50 (Endothelin-1 receptor [3]): 1.9 µM
IC50 [4]: 14 µM

COc1cccc(Cn2[nH]c(C(F)(F)F)c(Cc3ccc4c(c3)OCO4)c2=O)c1
IC50 [4]: 11 µM

COc1ccccc1Cn1[nH]c(C(F)(F)F)c(Cc2ccc3c(c2)OCO3)c1=O
IC50 (Endothelin-1 receptor [3]): 1.8 µM
IC50 [4]: 33 µM

COc1cccc(Cn2[nH]c(C(F)(F)C(F)(F)C(F)(F)F)c(Cc3ccc4c(c3)OCO4)c2=O)c1
IC50 (Endothelin-1 receptor [3]): 0.14 µM
IC50 [4]: 1 µM

COc1cccc(Cn2[nH]c(C(F)(F)F)c(Cc3ccc(F)cc3)c2=O)c1
IC50 [1]: Not Active
IC50 (Endothelin-1 receptor [3]): 40 µM

COc1cccc(Cn2nc(-c3ccccc3)c(Cc3cc4c(cc3Cl)OCO4)c2C(=O)O)c1
IC50 (Endothelin-1 receptor [3]): 0.018 µM
IC50 [4]: 0.034 µM

COc1cccc(Cn2nc(-c3ccccc3)c(Cc3ccc4c(c3)OCO4)c2C(=O)O)c1
IC50 (Endothelin-1 receptor [3]): 0.028 µM
IC50 [4]: 0.04 µM

COc1cccc(Cn2nc(C(F)(F)F)c(Cc3ccc4c(c3)OCO4)c2OCCO)c1
IC50 (Endothelin-1 receptor [3]): 40 µM
IC50 [4]: > 25 µM

COc1cccc(Cn2[nH]c(C)c(Cc3ccc4c(c3)OCO4)c2=O)c1
IC50 [1]: Not Active
IC50 (Endothelin-1 receptor [3]): 20 µM

COc1cccc(Cn2[nH]c(C(F)(F)F)c(Cc3ccccc3)c2=O)c1
IC50 [1]: Not Active
IC50 (Endothelin-1 receptor [3]): 98 µM

O=c1c(Cc2ccc3c(c2)OCO3)c(C(F)(F)F)[nH]n1Cc1ccccc1
IC50 (Endothelin-1 receptor [3]): 10 µM
IC50 [4]: 24 µM

COc1ccc(Cc2c(C(F)(F)F)[nH]n(Cc3cccc(OC)c3)c2=O)cc1
IC50 (Endothelin-1 receptor [3]): 48 µM
IC50 [4]: 39 µM

COc1cccc(Cn2[nH]c(C(F)(F)C(F)(F)F)c(Cc3ccc4c(c3)OCO4)c2=O)c1
IC50 (Endothelin-1 receptor [3]): 0.11 µM
IC50 [4]: 3.3 µM

COc1cccc(Cn2[nH]c(C(F)(F)F)c(Cc3ccc(OC)c(OC)c3)c2=O)c1
IC50 [1]: Not Active
IC50 (Endothelin-1 receptor [2]): Not Active

COc1cccc(Cn2nc(C(F)(F)F)c(Cc3ccc4c(c3)OCO4)c2OCC(=O)O)c1
IC50 (Endothelin-1 receptor [3]): 0.45 µM
IC50 [4]: 2.2 µM

O=C(O)COc1cccc(Cn2[nH]c(C(F)(F)F)c(Cc3ccc4c(c3)OCO4)c2=O)c1
IC50 (Endothelin-1 receptor [3]): 3.5 µM
IC50 [4]: 29 µM

O=c1c(Cc2ccc3c(c2)OCO3)c(C(F)(F)F)[nH]n1Cc1ccccc1Cl
IC50 (Endothelin-1 receptor [3]): 3.8 µM
IC50 [4]: 25 µM

CCOC(=O)COc1c(Cc2ccc3c(c2)OCO3)c(C(F)(F)F)nn1Cc1cccc(OC)c1
IC50 [1]: Not Active
IC50 (Endothelin-1 receptor [2]): Not Active

COc1cccc(Cn2[nH]c(-c3ccccc3)c(Cc3ccc4c(c3)OCO4)c2=O)c1
IC50 (Endothelin-1 receptor [3]): 0.42 µM
IC50 [4]: 3.2 µM

O=c1c(Cc2ccc3c(c2)OCO3)c(C(F)(F)F)[nH]n1Cc1ccc2c(c1)OCO2
IC50 (Endothelin-1 receptor [3]): 5.6 µM
IC50 [4]: 17 µM

COc1ccc(Cc2[nH]n(Cc3cccc(OC)c3)c(=O)c2Cc2ccc3c(c2)OCO3)cc1
IC50 (Endothelin-1 receptor [3]): 7.5 µM
IC50 [4]: 24 µM

COc1cccc(Cn2nc(C(F)(F)F)c(Cc3ccc4c(c3)OCO4)c2OC)c1
pKa [5]: 6
IC50 [1]: Not Active
IC50 (Endothelin-1 receptor [2]): Not Active

COc1cccc(Cn2[nH]c(C(F)(F)F)c(Cc3cc4c(cc3Cl)OCO4)c2=O)c1
IC50 (Endothelin-1 receptor [3]): 0.6 µM
IC50 [4]: 2.4 µM

COc1cccc(Cn2[nH]c(-c3ccc([N+](=O)[O-])cc3)c(Cc3ccc4c(c3)OCO4)c2=O)c1
IC50 (Endothelin-1 receptor [3]): 3.1 µM
IC50 [4]: 15 µM

COc1cccc(Cn2[nH]c(C(F)(F)F)c(Cc3ccc(Cl)c(Cl)c3)c2=O)c1
IC50 (Endothelin-1 receptor [3]): 10 µM
IC50 [4]: 8.4 µM

COc1cccc(Cn2[nH]c(C(F)(F)F)c(Cc3ccc(Cl)cc3)c2=O)c1
IC50 (Endothelin-1 receptor [3]): 4.3 µM
IC50 [4]: 22 µM

COc1ccc(Cn2[nH]c(C(F)(F)F)c(Cc3ccc4c(c3)OCO4)c2=O)cc1
IC50 (Endothelin-1 receptor [3]): 2.1 µM
IC50 [4]: 9.2 µM

From ChEMBL document CHEMBL1133200, “Nonpeptide endothelin antagonists: from lower affinity pyrazol-5-ols to higher affinity pyrazole-5-carboxylic acids” (Bioorg Med Chem Lett, 2000)
